Measured values reported in paper PMC13253105, “Chemical inhibition of a CBASS anti-bacteriophage defense” (iScience, 2026).
Like-named read-outs stand apart in the source and are kept apart here. Where a SMILES comes first, the peptide text is derived from it. The star is where a group is joined. Cbz = O=C(OCc1ccccc1)*; Bn = c1ccc(C*)cc1

Key:
[1] = system: PsCap5 in E. coli BL21 (DE3) cells; type: cell-based
Protocol: The same E. coli BL21 (DE3) cells carrying the PsCap5 expression plasmid from above were grown in LB medium with 50 μg/mL kanamycin at 37°C with 220 rpm shaking to an OD600 of ∼0.6 (1 cm pathlength). […] The bacterial cultures were then serially diluted from 10-1 to 10−6, and 5 μL of each was spotted onto LB agar petri dishes supplemented with kanamycin. After overnight incubation, the plates were photographed and colonies formed by viable cells were counted.

PsCap5 = PsCap5 (Pseudomonas syringae pv. actinidiae, UniProt A0A2P0QGK5); experiment: biochemical; details: for inhibition of PsCap5 in rescreening of the compound library: normalized DNA band intensity, threshold 0.25
LlCap5 = LlCap5 (Lactococcus cremoris, UniProt A0A1E7G0A2); experiment: biochemical; design: species or system Lactococcus lactis
Cas9 = Cas9 (Streptococcus pyogenes serotype M1, UniProt Q99ZW2); type: biochemical; details: inhibitor 20 (100 µM)
DpnI = DpnI (Streptococcus pneumoniae serotype 4, UniProt P0A459); type: biochemical; details: 1 μL 100 μM inhibitor 20 in 10 μL buffer
DpnI, sequence (P0A459 whole entry, looked up): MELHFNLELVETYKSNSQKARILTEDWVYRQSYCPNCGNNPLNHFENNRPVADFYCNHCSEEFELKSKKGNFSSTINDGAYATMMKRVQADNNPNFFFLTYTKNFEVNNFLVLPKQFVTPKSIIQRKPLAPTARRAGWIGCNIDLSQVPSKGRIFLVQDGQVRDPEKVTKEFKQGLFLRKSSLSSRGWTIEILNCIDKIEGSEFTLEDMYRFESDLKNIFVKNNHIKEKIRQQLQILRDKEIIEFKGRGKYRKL

PsCap5, sequence (A0A2P0QGK5 10-397 limits assumed): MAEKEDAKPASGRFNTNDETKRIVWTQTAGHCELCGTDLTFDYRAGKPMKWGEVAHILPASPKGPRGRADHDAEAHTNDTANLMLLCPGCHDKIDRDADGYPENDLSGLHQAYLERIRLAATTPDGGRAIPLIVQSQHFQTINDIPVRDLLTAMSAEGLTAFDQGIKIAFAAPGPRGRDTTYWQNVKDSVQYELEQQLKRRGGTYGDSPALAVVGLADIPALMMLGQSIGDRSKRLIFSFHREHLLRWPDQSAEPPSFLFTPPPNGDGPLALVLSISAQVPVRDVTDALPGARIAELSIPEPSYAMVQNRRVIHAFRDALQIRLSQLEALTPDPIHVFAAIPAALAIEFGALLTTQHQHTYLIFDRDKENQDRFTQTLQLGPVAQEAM
LlCap5, sequence (A0A1E7G0A2 1-385): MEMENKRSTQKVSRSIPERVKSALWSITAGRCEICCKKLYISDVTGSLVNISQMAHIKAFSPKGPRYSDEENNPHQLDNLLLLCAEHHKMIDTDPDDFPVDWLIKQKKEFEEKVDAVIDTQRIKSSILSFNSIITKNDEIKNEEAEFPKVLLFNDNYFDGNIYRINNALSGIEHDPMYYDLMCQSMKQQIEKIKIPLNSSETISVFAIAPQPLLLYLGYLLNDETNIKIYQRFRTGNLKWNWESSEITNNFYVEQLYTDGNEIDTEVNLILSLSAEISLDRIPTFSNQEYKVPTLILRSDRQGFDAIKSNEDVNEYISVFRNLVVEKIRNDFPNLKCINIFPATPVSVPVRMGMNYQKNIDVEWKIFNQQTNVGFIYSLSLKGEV
Cas9, sequence (Q99ZW2 whole entry, looked up): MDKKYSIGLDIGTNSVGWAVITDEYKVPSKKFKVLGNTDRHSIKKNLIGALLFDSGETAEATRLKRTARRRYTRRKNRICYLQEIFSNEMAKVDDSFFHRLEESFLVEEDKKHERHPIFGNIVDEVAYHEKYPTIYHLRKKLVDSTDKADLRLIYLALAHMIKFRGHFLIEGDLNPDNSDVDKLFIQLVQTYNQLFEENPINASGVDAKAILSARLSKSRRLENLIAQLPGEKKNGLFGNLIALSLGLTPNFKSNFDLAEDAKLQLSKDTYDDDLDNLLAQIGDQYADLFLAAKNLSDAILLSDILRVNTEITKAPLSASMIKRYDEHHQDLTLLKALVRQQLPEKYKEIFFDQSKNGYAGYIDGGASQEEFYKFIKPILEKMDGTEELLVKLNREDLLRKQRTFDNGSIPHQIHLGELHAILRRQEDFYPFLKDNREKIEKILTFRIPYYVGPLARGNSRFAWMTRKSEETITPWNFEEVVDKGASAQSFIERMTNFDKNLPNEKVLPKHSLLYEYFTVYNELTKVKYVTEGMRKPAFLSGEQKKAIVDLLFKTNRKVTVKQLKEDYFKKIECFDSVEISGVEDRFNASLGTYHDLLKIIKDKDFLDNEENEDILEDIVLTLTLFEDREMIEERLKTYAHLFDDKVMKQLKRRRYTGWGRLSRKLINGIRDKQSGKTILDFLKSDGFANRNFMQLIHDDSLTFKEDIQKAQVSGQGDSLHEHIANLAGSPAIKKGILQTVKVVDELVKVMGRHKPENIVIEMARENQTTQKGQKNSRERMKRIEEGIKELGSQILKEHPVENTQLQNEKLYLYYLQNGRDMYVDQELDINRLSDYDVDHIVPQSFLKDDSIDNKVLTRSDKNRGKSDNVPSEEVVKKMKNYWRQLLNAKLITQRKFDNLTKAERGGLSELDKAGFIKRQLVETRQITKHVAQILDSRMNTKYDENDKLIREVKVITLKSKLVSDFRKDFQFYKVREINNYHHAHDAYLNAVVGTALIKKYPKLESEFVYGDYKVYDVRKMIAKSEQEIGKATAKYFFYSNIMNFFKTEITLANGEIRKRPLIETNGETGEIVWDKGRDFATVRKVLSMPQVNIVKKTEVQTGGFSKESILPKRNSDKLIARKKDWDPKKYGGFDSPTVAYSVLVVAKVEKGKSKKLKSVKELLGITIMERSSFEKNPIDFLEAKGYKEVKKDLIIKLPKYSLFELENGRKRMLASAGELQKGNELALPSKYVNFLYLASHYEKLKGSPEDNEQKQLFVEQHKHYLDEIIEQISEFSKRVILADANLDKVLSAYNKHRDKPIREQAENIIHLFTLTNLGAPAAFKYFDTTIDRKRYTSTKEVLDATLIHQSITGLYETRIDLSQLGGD

| Molecule | inhibition of PsCap5 in rescreening of the compound library (PsCap5) | IC50 (LlCap5) [µM] | IC50 (PsCap5) [µM] | also measured |
| --- | --- | --- | --- | --- |
| 3′,2′-cGAMP [reference compound] |  |  |  | bacterial growth of E. coli carrying PsCap5 plasmid after extrinsic addition of activating ligand [1]: severe restriction of bacterial growth |
| NS(=O)(=O)c1ccc(CCNC(=O)CCCn2c(SCc3cc(=O)n4cc(Br)ccc4n3)nc3ccsc3c2=O)cc1 [Compound 2] | did not noticeably inhibit PsCap5 | 230 ± 10 |  |  |
| NS(=O)(=O)c1ccc(CCNC(=O)CSc2nc3ccccc3c(=O)n2Cn2c(SCC(=O)NCCc3ccc(S(N)(=O)=O)cc3)nc3ccccc3c2=O)cc1 [Compound 4] |  |  |  | IC50 (PsCap5; read-out: IC50 against PsCap5, 50 nM PsCap5, 10 nM 3′,2′-cGAMP, 37°C 15 min, ±S.E.M. of biological triplicates): 11 ± 1 µM; rescue of E. coli from cGAMP-Cap5-induced toxicity [1]: failed to rescue; inhibition of LlCap5 in biochemical screening (LlCap5; normalized DNA band intensity, threshold for activity 0.4): inactive against LlCap5 |
| O=C(CCN1C(=O)c2ccccc2C1=O)NCCCCCCNC(=O)CCN1C(=O)c2ccccc2C1=O [Compound 19] | did not noticeably inhibit PsCap5 | > 100 |  |  |
| Cc1ccc(CNC(=O)c2ccc(Cn3c(=O)c4ccccc4n(CC(=O)NCc4ccco4)c3=O)cc2)cc1 [Compound 20] |  | 120 ± 60 | 24 ± 8 | inhibition of Cas9 (Cas9): failed to inhibit Cas9; recovery of viable cells (bacterial population) ([1]; 0.33 mM compound 20, 0.2 mM 3′,2′-cGAMP, 37°C 3 h): ~100 fold; inhibition of DpnI (DpnI): failed to inhibit |
| COC(=O)C(NC(=O)C(Cc1ccc(OCc2ccccc2)cc1)NC(=O)C(Cc1ccccc1)NC(=O)CNC(=O)OCc1ccccc1)C(C)O (stereo not shown) [Compound 22] (Cbz-GFY(Bn)T-OMe; configuration not given here) | did not noticeably inhibit PsCap5 | 58 ± 16 |  |  |
| Cn1c(=O)[nH]c(=O)c2c1nc(SCCSc1nc3c(c(=O)[nH]c(=O)n3C)n1CCc1ccccc1)n2CCc1ccccc1 [Compound 36] |  | 140 ± 20 | 100 ± 20 |  |
| NC(=O)[C@H](Cc1ccc(O)cc1)NC(=O)[C@H](CCCCNC(=O)OCc1ccccc1)NC(=O)OCc1ccccc1 [Compound 37] |  | 260 ± 70 | 150 ± 40 |  |
